pIC50: −log10 of the molar value.
How the values were obtained:
human Gal-1 (hGal-1) = test: Competitive binding assay: binding of biotinylated hGal-1 to microplate-adsorbed asialofetuin (ASF); conditions: Activities on hGal-1; mean values of several measurements
Method: (§1) Evaluation of Compound Inhibitory Activity (IC50)
(§2) The inhibitory activity of compounds is determined in competitive binding assays. This spectrophotometric assay measures the binding of biotinylated human Gal-3 (hGal-3) or human Gal-1 (hGal-1), respectively, to a microplate-adsorbed glycoprotein, asialofetuin (ASF) (Proc Natl Acad Sci USA. 2013 Mar. 26; 110(13):5052-7.). Alternatively, and preferably, a human Gal-1 version in which all six cysteines are substituted by serines may be used.
(§3) Briefly, compounds are serially diluted in DMSO (working dilutions). ASF-coated 384 well plates are supplemented with 22.8 μL/well of biotinylated hGal-3 or hGal-1 in assay buffer (i.e. 300-1000 ng/mL biotinylated hGal-3 or hGal-1) to which 1.2 μL of compound working dilutions are added and mixed.
(§4) Plates are incubated for 3 hours at 4° C., then washed with cold assay buffer (3×50 uL), incubated for 1 hour with 25 μL/well of a streptavidin-peroxidase solution (diluted in assay buffer to 80 ng/mL) at 4° C., followed by further washing steps with assay buffer (3×50 uL). Finally, 25 μL/well of ABTS substrate is added.
(§5) The calculated IC50 values may fluctuate depending on the daily assay performance. Fluctuations of this kind are known to those skilled in the art. IC50 values from several measurements are given as mean values.

human Gal-3 (hGal-3) = human Gal-3 (hGal-3) (Homo sapiens (Human), UniProt P17931); test: Competitive binding assay: binding of biotinylated hGal-3 to microplate-adsorbed asialofetuin (ASF); conditions: Activity on hGal-3; mean values of several measurements
Chain of human Gal-3 (hGal-3) (P17931 whole entry): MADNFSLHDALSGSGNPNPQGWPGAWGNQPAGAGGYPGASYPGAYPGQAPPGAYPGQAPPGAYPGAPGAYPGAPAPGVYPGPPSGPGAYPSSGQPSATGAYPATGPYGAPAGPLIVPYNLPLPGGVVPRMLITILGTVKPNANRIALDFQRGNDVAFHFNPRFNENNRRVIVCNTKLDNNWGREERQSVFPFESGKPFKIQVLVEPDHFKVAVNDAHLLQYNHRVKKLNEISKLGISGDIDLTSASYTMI
Method: as §1, §2, §3, §4, §5

Chain of human Gal-1 (hGal-1) (P09382 2-135 limits assumed): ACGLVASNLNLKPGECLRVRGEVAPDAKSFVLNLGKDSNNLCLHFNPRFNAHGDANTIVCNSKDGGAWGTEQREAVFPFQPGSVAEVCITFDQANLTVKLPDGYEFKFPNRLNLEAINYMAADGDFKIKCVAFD

pIC50 (human Gal-1 (hGal-1))	pIC50 (human Gal-3 (hGal-3))	Molecule
6.02	7.34	1-(4-(3-(((2R,3R,4R,5R,6R)-3,5-dihydroxy-6-(hydroxymethyl)-4-(4-(3,4,5-trifluorophenyl)-1H-1,2,3-triazol-1-yl)tetrahydro-2H-pyran-2-yl)methyl)isoxazol-5-yl)piperidin-1-yl)ethan-1-one [Example 3.17]
5.24	6.52	OC[C@H]1O[C@H](CC2CC(C3CCNCC3)=NO2)[C@H](O)[C@@H](n2cc(-c3cc(F)c(F)c(F)c3)nn2)[C@H]1O (mixture of isomers) [Example 3.01, (2R,3R,4R,5R,6R)-2-(hydroxymethyl)-6-(((RS)-3-(piperidin-4-yl)-4,5-dihydroisoxazol-5-yl)methyl)-4-(4-(3,4,5-trifluorophenyl)-1H-1,2,3-triazol-1-yl)tetrahydro-2H-pyran-3,5-diol]
5.34	6.47	CN1CCC(C2=NOC(C[C@H]3O[C@H](CO)[C@H](O)[C@H](n4cc(-c5cc(F)c(F)c(F)c5)nn4)[C@H]3O)C2)CC1 (mixture of isomers) [Example 3.02, (2R,3R,4R,5R,6R)-2-(hydroxymethyl)-6-(((RS)-3-(1-methylpiperidin-4-yl)-4,5-dihydroisoxazol-5-yl)methyl)-4-(4-(3,4,5-trifluorophenyl)-1H-1,2,3-triazol-1-yl)tetrahydro-2H-pyran-3,5-diol]
5.60	6.82	CC(=O)N1CCC(C2=NOC(C[C@H]3O[C@H](CO)[C@H](O)[C@H](n4cc(-c5cc(F)c(F)c(F)c5)nn4)[C@H]3O)C2)CC1 (mixture of isomers) [Example 3.03, 1-(4-((RS)-5-(((2R,3R,4R,5R,6R)-3,5-dihydroxy-6-(hydroxymethyl)-4-(4-(3,4,5-trifluorophenyl)-1H-1,2,3-triazol-1-yl)tetrahydro-2H-pyran-2-yl)methyl)-4,5-dihydroisoxazol-3-yl)piperidin-1-yl)ethan-1-one]
5.25	6.26	CO[C@@H]1[C@@H](n2cc(-c3cc(F)c(F)c(F)c3)nn2)[C@@H](O)[C@@H](CO)O[C@@H]1CC1CC(C2CCNCC2)=NO1 (mixture of isomers) [Example 3.04, (2R,3R,4S,5R,6R)-2-(hydroxymethyl)-5-methoxy-6-(((RS)-3-(piperidin-4-yl)-4,5-dihydroisoxazol-5-yl)methyl)-4-(4-(3,4,5-trifluorophenyl)-1H-1,2,3-triazol-1-yl)tetrahydro-2H-pyran-3-ol]
5.73	6.54	CO[C@@H]1[C@@H](n2cc(-c3cc(F)c(F)c(F)c3)nn2)[C@@H](O)[C@@H](CO)O[C@@H]1CC1CC(C2CCN(C(C)=O)CC2)=NO1 (mixture of isomers) [Example 3.05, 1-(4-((RS)-5-(((2R,3R,4S,5R,6R)-5-hydroxy-6-(hydroxymethyl)-3-methoxy-4-(4-(3,4,5-trifluorophenyl)-1H-1,2,3-triazol-1-yl)tetrahydro-2H-pyran-2-yl)methyl)-4,5-dihydroisoxazol-3-yl)piperidin-1-yl)ethan-1-one]
4.88	6.08	OC[C@H]1O[C@H](CC2=NOC(C3CCNCC3)C2)[C@H](O)[C@@H](n2cc(-c3cc(F)c(F)c(F)c3)nn2)[C@H]1O (mixture of isomers) [Example 3.09, (2R,3R,4R,5R,6R)-2-(hydroxymethyl)-6-(((RS)-5-(piperidin-4-yl)-4,5-dihydroisoxazol-3-yl)methyl)-4-(4-(3,4,5-trifluorophenyl)-1H-1,2,3-triazol-1-yl)tetrahydro-2H-pyran-3,5-diol]
5.65	6.74	CC(=O)N1CCC(C2CC(C[C@H]3O[C@H](CO)[C@H](O)[C@H](n4cc(-c5cc(F)c(F)c(F)c5)nn4)[C@H]3O)=NO2)CC1 (mixture of isomers) [Example 3.18, 1-(4-((RS)-3-(((2R,3R,4R,5R,6R)-3,5-dihydroxy-6-(hydroxymethyl)-4-(4-(3,4,5-trifluorophenyl)-1H-1,2,3-triazol-1-yl)tetrahydro-2H-pyran-2-yl)methyl)-4,5-dihydroisoxazol-5-yl)piperidin-1-yl)ethan-1-one]
	7.15	CO[C@@H]1[C@@H](n2cc(-c3cc(F)c(F)c(F)c3)nn2)[C@@H](O)[C@@H](CO)O[C@@H]1Cc1cc(C2CCN(C(=O)CC(F)(F)F)CC2)on1 [Example 3.51, 3,3,3-trifluoro-1-(4-(3-(((2R,3R,4S,5R,6R)-5-hydroxy-6-(hydroxymethyl)-3-methoxy-4-(4-(3,4,5-trifluorophenyl)-1H-1,2,3-triazol-1-yl)tetrahydro-2H-pyran-2-yl)methyl)isoxazol-5-yl)piperidin-1-yl)propan-1-one]

More lines, now with the values behind:

Molecule	pIC50 (human Gal-1 (hGal-1))	pIC50 (human Gal-3 (hGal-3))
CO[C@@H]1[C@@H](n2cc(-c3cc(F)c(F)c(F)c3)nn2)[C@@H](O)[C@@H](CO)O[C@@H]1Cc1cc(C2CCNC2)on1 (mixture of isomers) [Example 2.08, (2R,3R,4S,5R,6R)-2-(hydroxymethyl)-5-methoxy-6-((5-((RS)-pyrrolidin-3-yl)isoxazol-3-yl)methyl)-4-(4-(3,4,5-trifluorophenyl)-1H-1,2,3-triazol-1-yl)tetrahydro-2H-pyran-3-ol]	5.35	6.19
CCO[C@@H]1[C@@H](n2cc(-c3cc(F)c(F)c(F)c3)nn2)[C@@H](O)[C@@H](CO)O[C@@H]1CC1CC(C2CCN(C(=O)OC(C)(C)C)CC2)=NO1 (mixture of isomers) [Example 2.31, tert-butyl 4-((RS)-5-(((2R,3R,4S,5R,6R)-3-ethoxy-5-hydroxy-6-(hydroxymethyl)-4-(4-(3,4,5-trifluorophenyl)-1H-1,2,3-triazol-1-yl)tetrahydro-2H-pyran-2-yl)methyl)-4,5-dihydroisoxazol-3-yl)piperidine-1-carboxylate]	5.89	6.52
CC(C)(C)OC(=O)N1CCC(C2=NOC(C[C@H]3O[C@H](CO)[C@H](O)[C@H](n4cc(-c5cc(F)c(F)c(F)c5)nn4)[C@H]3OCC(F)F)C2)CC1 (mixture of isomers) [Example 2.32, tert-butyl 4-((RS)-5-(((2R,3R,4S,5R,6R)-3-(2,2-difluoroethoxy)-5-hydroxy-6-(hydroxymethyl)-4-(4-(3,4,5-trifluorophenyl)-1H-1,2,3-triazol-1-yl)tetrahydro-2H-pyran-2-yl)methyl)-4,5-dihydroisoxazol-3-yl)piperidine-1-carboxylate]	5.53	6.46
COC(=O)CO[C@@H]1[C@@H](n2cc(-c3cc(F)c(F)c(F)c3)nn2)[C@@H](O)[C@@H](CO)O[C@@H]1CC1CC(C2CCN(C(=O)OC(C)(C)C)CC2)=NO1 (mixture of isomers) [Example 2.33, tert-butyl 4-((RS)-5-(((2R,3R,4S,5R,6R)-5-hydroxy-6-(hydroxymethyl)-3-(2-methoxy-2-oxoethoxy)-4-(4-(3,4,5-trifluorophenyl)-1H-1,2,3-triazol-1-yl)tetrahydro-2H-pyran-2-yl)methyl)-4,5-dihydroisoxazol-3-yl)piperidine-1-carboxylate]	5.61	6.51
CC(C)(C)OC(=O)N1CCC(C2=NOC(C[C@H]3O[C@H](CO)[C@H](O)[C@H](n4cc(-c5cc(F)c(F)c(F)c5)nn4)[C@H]3OCC(=O)O)C2)CC1 (mixture of isomers) [Example 2.34, 2-(((2R,3R,4S,5R,6R)-2-(((RS)-3-(1-(tert-butoxycarbonyl)piperidin-4-yl)-4,5-dihydroisoxazol-5-yl)methyl)-5-hydroxy-6-(hydroxymethyl)-4-(4-(3,4,5-trifluorophenyl)-1H-1,2,3-triazol-1-yl)tetrahydro-2H-pyran-3-yl)oxy)acetic acid]	5.92	7.17
CNC(=O)CO[C@@H]1[C@@H](n2cc(-c3cc(F)c(F)c(F)c3)nn2)[C@@H](O)[C@@H](CO)O[C@@H]1CC1CC(C2CCN(C(=O)OC(C)(C)C)CC2)=NO1 (mixture of isomers) [Example 2.35, tert-butyl 4-((RS)-5-(((2R,3R,4S,5R,6R)-5-hydroxy-6-(hydroxymethyl)-3-(2-(methylamino)-2-oxoethoxy)-4-(4-(3,4,5-trifluorophenyl)-1H-1,2,3-triazol-1-yl)tetrahydro-2H-pyran-2-yl)methyl)-4,5-dihydroisoxazol-3-yl)piperidine-1-carboxylate]	5.58	6.85
CC(C)(C)OC(=O)N1CCC(C2=NOC(C[C@H]3O[C@H](CO)[C@H](O)[C@H](n4cc(-c5cc(F)c(F)c(F)c5)nn4)[C@H]3OCC(=O)N3CCOCC3)C2)CC1 (mixture of isomers) [Example 2.36, tert-butyl 4-((RS)-5-(((2R,3R,4S,5R,6R)-5-hydroxy-6-(hydroxymethyl)-3-(2-morpholino-2-oxoethoxy)-4-(4-(3,4,5-trifluorophenyl)-1H-1,2,3-triazol-1-yl)tetrahydro-2H-pyran-2-yl)methyl)-4,5-dihydroisoxazol-3-yl)piperidine-1-carboxylate]	5.56	6.92

Reference: patent US12319672B2, “Alpha-D-galactopyranoside derivatives” (Idorsia Pharmaceuticals Ltd, priority 2019, dated 2025)
